In patent US20260062422A1 (Halda Therapeutics OpCo, Inc., priority 2022, published 2026):

How the values were obtained:
[1] = tested on: T-Rex 293 cell line SC3 cells having increased expression of androgen receptor protein due to exposure to doxycycline; test: Cellular growth inhibition, T-Rex 293 SC3 cells with doxycycline (androgen receptor induced), CellTiter-Glo; format: cell-based; settings: T-Rex 293 SC3 cells with 10 ng/mL doxycycline (increased androgen receptor expression)
How it was run: (§1)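 Luminescence read-out (CellTiter-Glo 2.0) after 72 h compound exposure; GI50 by four-parameter nonlinear regression, baseline set at zero luminescence. SC3 cells, a doxycycline-inducible wild-type AR clone of T-Rex 293, were cultured ±10 ng/mL doxycycline in charcoal-dextran FBS medium.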

T47D cells = test: Cellular growth inhibition assay for T47D cells, CellTiter-Glo; format: cell-based, human; settings: 72 hours treatment, CellTiter-Glo 2.0 cell viability
How it was run: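 Luminescence from CellTiter-Glo 2.0 after 72 h of compound exposure gives the viability signal. Cells grew in insulin-supplemented (0.2 units/mL) DMEM with 10% FBS and were treated one day after seeding at 0.5% DMSO. GI50 values come from four-parameter nonlinear regression.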

VCaP cells = test: Cellular growth inhibition assay for VCaP cells, CellTiter-Glo; format: cell-based, human; settings: 72 hours treatment, CellTiter-Glo 2.0
How it was run: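 GI50 values come from four-parameter curve fits of luminescence data normalized to a zero baseline. Compound, in medium with 0.5% DMSO, was added one day after plating and left for 72 h before CellTiter-Glo 2.0 addition.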

[2] = tested on: T-Rex 293 cell line SC3 cells lacking increased expression of androgen receptor protein; test: Cellular growth inhibition, T-Rex 293 SC3 cells without doxycycline, CellTiter-Glo; format: cell-based; settings: T-Rex 293 SC3 cells not exposed to doxycycline, CellTiter-Glo 2.0
How it was run: as §1

| Compound | GI50 ([1]; 72 h) | GI50 (T47D cells; Homo sapiens, T47D, 72 h) | GI50 (VCaP cells; Homo sapiens, VCaP, 72 h) | GI50 ([2]; 72 h) | GI50 ([1]; 72 hours) | GI50 (T47D cells) | GI50 (VCaP cells) | GI50 ([2]; 72 hours) |
| --- | --- | --- | --- | --- | --- | --- | --- | --- |
| Cc1sc2c(c1C)C(c1ccc(OC3CC4(C3)CC3(CCN(c5cnc(C(=O)N[C@H]6C(C)(C)[C@H](Oc7ccc(C#N)c(Cl)c7)C6(C)C)cn5)CC3)C4)cc1)=N[C@@H](C)c1nnc(C)n1-2 [Compound I-412] | > 3 µM | < 0.5 µM | > 3 µM | > 3 µM | – | – | – | – |
| Cc1sc2c(c1C)C(c1ccc(OC3CC4(C3)CN(c3ncc(C(=O)N[C@H]5C(C)(C)[C@H](Oc6ccc(C#N)c(Cl)c6)C5(C)C)cn3)C4)cc1)=N[C@H](Cc1ncco1)c1nnc(C)n1-2 [Compound I-199] | < 0.5 µM | < 0.5 µM | < 0.5 µM | < 0.5 µM | – | – | – | – |
| Cc1sc2c(c1C)C(c1ccc(C3CC(C4CCN(c5cnc(C(=O)N[C@H]6C(C)(C)[C@H](Oc7ccc(C#N)c(Cl)c7)C6(C)C)cn5)CC4)C3)cc1)=NC(C)c1nnc(C)n1-2 (stereo partly shown) [Compound I-472] | – | – | – | – | > 3 µM | < 0.5 µM | > 3 µM | > 3 µM |
| Cc1sc2c(c1C)C(c1ccc(CC[C@H]3C[C@@]4(CCCN(c5ncc(C(=O)N[C@H]6C(C)(C)[C@H](Oc7ccc(C#N)c(Cl)c7)C6(C)C)cn5)C4)C3)cc1)=N[C@@H](C)c1nnc(C)n1-2 [Compound I-368] | < 0.5 µM | < 0.5 µM | < 0.5 µM | > 3 µM | – | – | – | – |
| Cc1sc2c(c1C)C(c1ccc(C3CN(C(=O)C4CCN(c5ncc(C(=O)N[C@H]6C(C)(C)[C@H](Oc7ccc(C#N)c(Cl)c7)C6(C)C)cn5)CC4)C3)cc1)=N[C@@H](C)c1nnc(C)n1-2 [Compound I-590] | < 0.5 µM | < 0.5 µM | < 0.5 µM | < 0.5 µM | – | – | – | – |
| COCC[C@@H]1N=C(c2ccc(N3CC(CC4CCN(c5cnc(C(=O)N[C@H]6C(C)(C)[C@H](Oc7ccc(C#N)c(Cl)c7)C6(C)C)cn5)CC4)C3)cc2)c2c(sc(C)c2C)-n2c(C)nnc21 [Compound I-609] | < 0.5 µM | < 0.5 µM | 0.5 to 1.5 µM | < 0.5 µM | – | – | – | – |
| Cc1sc2c(c1C)C(c1ccc(C[C@H]3C[C@@H]([C@H]4CCCN(c5ncc(C(=O)N[C@H]6C(C)(C)[C@H](Oc7ccc(C#N)c(Cl)c7)C6(C)C)cn5)C4)C3)cc1)=N[C@@H](Cc1ncco1)c1nnc(C)n1-2 [Compound I-160] | > 3 µM | 1.5 to 3 µM | > 3 µM | > 3 µM | – | – | – | – |
| Cc1sc2c(c1C)C(c1ccc([C@H]3C[C@@H]([C@@H]4CCCN(c5ncc(C(=O)N[C@H]6C(C)(C)[C@H](Oc7ccc(C#N)c(Cl)c7)C6(C)C)cn5)C4)C3)cc1)=N[C@@H](Cc1ncco1)c1nnc(C)n1-2 [Compound I-419] | > 3 µM | > 3 µM | > 3 µM | > 3 µM | – | – | – | – |
| Cc1sc2c(c1C)C(c1ccc(N3CCCC(CN(C)c4ncc(C(=O)N[C@H]5C(C)(C)[C@H](Oc6ccc(C#N)c(Cl)c6)C5(C)C)cn4)C3)cc1)=N[C@@H](Cc1ncco1)c1nnc(C)n1-2 (stereo partly shown) [Compound I-650] | < 0.5 µM | 0.5 to 1.5 µM | 0.5 to 1.5 µM | > 3 µM | – | – | – | – |
| Cc1sc2c(c1C)C(c1ccc(O[C@H]3CCC4(CCN(c5ncc(C(=O)N[C@H]6C(C)(C)[C@H](Oc7ccc(C#N)c(Cl)c7)C6(C)C)cn5)CC4)C3)cc1)=N[C@@H](Cc1ncco1)c1nnc(C)n1-2 [Compound I-173] | < 0.5 µM | < 0.5 µM | < 0.5 µM | > 3 µM | – | – | – | – |
| Cc1sc2c(c1C)C(c1ccc(CC3CC4(CCN(c5ccc(C(=O)N(C)[C@H]6C(C)(C)[C@H](Oc7ccc(C#N)c(Cl)c7)C6(C)C)cn5)CC4)C3)cc1)=N[C@@H](C)c1nnc(C)n1-2 [Compound I-589] | < 0.5 µM | 0.5 to 1.5 µM | < 0.5 µM | > 3 µM | – | – | – | – |
| Cc1sc2c(c1C)C(c1ccc(OCCOC3CCN(c4ncc(C(=O)N[C@H]5C(C)(C)[C@H](Oc6ccc(C#N)c(Cl)c6)C5(C)C)cn4)CC3)cc1)=N[C@@H](CC(=O)NC1CC1)c1nnc(C)n1-2 [Compound I-67] | < 0.5 µM | 0.5 to 1.5 µM | < 0.5 µM | < 0.5 µM | – | – | – | – |
| Cc1sc2c(c1C)C(c1ccc(C[C@H]3C[C@H]([C@H]4CCCN(c5ncc(C(=O)N[C@H]6C(C)(C)[C@H](Oc7ccc(C#N)c(Cl)c7)C6(C)C)cn5)C4)C3)cc1)=N[C@@H](Cc1ncco1)c1nnc(C)n1-2 [Compound I-159] | > 3 µM | > 3 µM | > 3 µM | > 3 µM | – | – | – | – |
| CCNC(=O)C[C@@H]1N=C(c2ccc(N3CC(N(C(C)C)C4CN(c5ncc(C(=O)N[C@H]6C(C)(C)[C@H](Oc7ccc(C#N)c(Cl)c7)C6(C)C)cn5)C4)C3)cc2)c2c(sc(C)c2C)-n2c(C)nnc21 [Compound I-125] | < 0.5 µM | 0.5 to 1.5 µM | < 0.5 µM | 0.5 to 1.5 µM | – | – | – | – |
| CNc1ccc2c(n1)C(c1ccc(OC3CC4(CCCN(c5ncc(C(=O)N[C@H]6C(C)(C)[C@H](Oc7ccc(C#N)c(Cl)c7)C6(C)C)cn5)C4)C3)cc1)=NCc1onc(C)c1-2 [Compound I-231, N-[3-(3-chloro-4-cyano-phenoxy)-2,2,4,4-tetramethyl-cyclobutyl]-2-[2-[4-[3-methyl-12-(methylamino)-5-oxa-4,8,11-triazatricyclo [8.4.0.02,6]tetradeca-1(10),2(6),3,8,11,13-hexaen-9-yl]phenoxy]-6-azaspiro[3.5]nonan-6-yl]pyrimidine-5-carboxamide] | < 0.5 µM | > 3 µM | > 3 µM | > 3 µM | – | – | – | – |
| CCNC(=O)C[C@@H]1N=C(c2ccc(N3CCC(CN4CCN(c5ncc(C(=O)N[C@H]6C(C)(C)[C@H](Oc7ccc(C#N)c(Cl)c7)C6(C)C)cn5)CC4)CC3)cc2)c2c(sc(C)c2C)-n2c(C)nnc21 [Compound I-109] | < 0.5 µM | < 0.5 µM | < 0.5 µM | 0.5 to 1.5 µM | – | – | – | – |
| CCNC(=O)C[C@@H]1N=C(c2ccc(N3CCC(CN4CC(N(C)c5ncc(C(=O)N[C@H]6C(C)(C)[C@H](Oc7ccc(C#N)c(Cl)c7)C6(C)C)cn5)C4)CC3)cc2)c2c(sc(C)c2C)-n2c(C)nnc21 [Compound I-128] | > 3 µM | 1.5 to 3 µM | 1.5 to 3 µM | > 3 µM | – | – | – | – |
| Cc1sc2c(c1C)C(c1ccc(-c3nnc(OC4CCN(c5ncc(C(=O)N[C@H]6C(C)(C)[C@H](Oc7ccc(C#N)c(Cl)c7)C6(C)C)cn5)CC4)s3)cc1)=N[C@@H](Cc1ncco1)c1nnc(C)n1-2 [Compound I-407] | < 0.5 µM | < 0.5 µM | < 0.5 µM | < 0.5 µM | – | – | – | – |
| Cc1sc2c(c1C)C(c1ccc(NCCC3CCCN(c4ncc(C(=O)N[C@H]5C(C)(C)[C@H](Oc6ccc(C#N)c(Cl)c6)C5(C)C)cn4)C3)cc1)=N[C@@H](Cc1ncco1)c1nnc(C)n1-2 (stereo partly shown) [Compound I-652] | < 0.5 µM | < 0.5 µM | < 0.5 µM | < 0.5 µM | – | – | – | – |
| Cc1sc2c(c1C)C(c1ccc(NCC(=O)N3CCC(c4ncc(C(=O)N[C@H]5C(C)(C)[C@H](Oc6ccc(C#N)c(Cl)c6)C5(C)C)cn4)CC3)cc1)=N[C@H](Cc1ncco1)c1nnc(C)n1-2 [Compound I-275] | < 0.5 µM | < 0.5 µM | < 0.5 µM | < 0.5 µM | – | – | – | – |
| Cc1sc2c(c1C)C(c1ccc(N3C4CC(=O)CC3CN(c3ncc(C(=O)N[C@H]5C(C)(C)[C@H](Oc6ccc(C#N)c(Cl)c6)C5(C)C)cn3)C4)cc1)=NC(Cc1ncco1)c1nnc(C)n1-2 (stereo partly shown) [Compound I-654] | – | < 0.5 µM | < 0.5 µM | – | < 0.5 µM | – | – | < 0.5 µM |
| Cc1sc2c(c1C)C(c1ccc(OC3CN(CC4CCN(c5ncc(C(=O)N[C@H]6C(C)(C)[C@H](Oc7ccc(C#N)c(Cl)c7)C6(C)C)cn5)CC4)C3)cc1)=N[C@@H](Cc1ncco1)c1nnc(C)n1-2 [Compound I-168] | < 0.5 µM | 0.5 to 1.5 µM | > 3 µM | > 3 µM | – | – | – | – |
